{"source": "patent US12213988B2", "about": "(ASTRAZENECA AB, priority 2020, dated 2025)", "key": {"[1]": {"system": "patients with chronic kidney disease (CKD)", "description": "The study population chosen for this study included a broad population of patients with impaired kidney function. The target population had CKD (defined as eGFR ≥25 and ≤75 mL/min/1.73 m^2) with albuminuria (defined as urine albumin creatinine ratio [UACR]≥200 and ≤5000 mg/g) with or without type 2 diabetes (T2D).\nPatients included in the study satisfied the following criteria: • Female or male aged ≥18 years at the time of consent. • eGFR ≥25 and ≤75 mL/min/1.73 m^2 (CKD-EPI Formula) at visit 1. • Evidence of increased albuminuria 3 months or more before visit 1 and UACR ≥200 and ≤5000 mg/g at visit 1. • Stable, and for the patient maximum tolerated labelled daily dose, treatment with ACE-I or ARB for at least 4 weeks before visit 1, if not medically contraindicated.\nThe primary outcome measure was based on the requirements as outlined in the European Medicines Agency (EMA)'s draft guideline, which states that a composite endpoint of ≥50% sustained decline in eGFR, end stage renal disease (ESRD), and renal death (death due to ESRD when dialysis is not given) are acceptable outcome measures (EMA 2016). This endpoint has also been used in a number of previous outcome studies.\nThe primary variable was the time to first event included in the primary composite endpoint. The primary analysis was based on the intention to treat (ITT) principle using the FAS."}, "[2]": {"system": "patients with chronic kidney disease (CKD)", "remark": "listed apart in the source"}, "[3]": {"system": "patients with CKD and prediabetes"}, "[4]": {"system": "patients with heart failure with reduced ejection fraction"}, "[5]": {"conditions": "vs placebo or standard of care CKD agent alone, in words"}, "[6]": {"conditions": "vs placebo or standard of care CKD agent alone, in words, listed as Dapagliflozin"}, "[7]": {"conditions": "Dapa 10 mg (N = 2149), on-treatment period per Table 2 footnote"}, "[8]": {"conditions": "No diabetes, Dapa 10 mg (N = 696), on- and off-treatment periods"}, "[9]": {"conditions": "patients with T2DM, Dapa 10 mg (N = 1453), on- and off-treatment periods"}, "[10]": {"conditions": "dapagliflozin 10 mg once daily, CKD and prediabetes, median follow-up of 2.4 years"}, "[11]": {"conditions": "dapa group, DAPA-HF non-T2D patients"}}, "note": "Read-outs that look alike come from different tables or passages of the source."}
{"smiles": "CCOc1ccc(Cc2cc([C@@H]3O[C@H](CO)[C@@H](O)[C@H](O)[C@H]3O)ccc2Cl)cc1", "note": "[dapagliflozin]", "values": [{"measurement": "hazard ratio, primary end point (≥50% sustained decline in eGFR, ESRD, and CV or renal death)", "setting": "[1]; dapagliflozin vs placebo, 95% CI 0.51 to 0.72, P<0.0001", "value": 0.61}, {"measurement": "effect on death from any cause", "setting": "[1]; [5]", "value": "superior"}, {"measurement": "effect on renal-only secondary endpoint (composite of ≥50% sustained decline in eGFR, ESRD & renal death; renal composite without CV death)", "setting": "[1]; [5]", "value": "superior"}, {"measurement": "effect on secondary endpoint composite of CV death and hospitalisation for HF", "setting": "[1]; [5]", "value": "superior"}, {"measurement": "effect on time to first, second, or third hospitalisation for HF (exploratory endpoints)", "setting": "[1]; [5]", "value": "superior"}, {"measurement": "effect on death from any cause", "setting": "[1]; [6]", "value": "superior to placebo"}, {"measurement": "effect on renal-only secondary endpoint (composite of ≥50% sustained decline in eGFR, ESRD & renal death; renal composite without CV death)", "setting": "[1]; [6]", "value": "significant treatment effect"}, {"measurement": "effect on secondary endpoint composite of CV death and hospitalisation for HF", "setting": "[1]; [6]", "value": "Statistically significant reduction"}, {"measurement": "effect on composite of ≥50% sustained eGFR decline, ESRD, and renal or CV death (primary objective)", "setting": "[1]; vs placebo, in words", "value": "clinically meaningful and statistically significant reduction"}, {"measurement": "SAE: Infections and infestations", "setting": "[2]; Dapa 10 mg (N = 2149), on-treatment period", "value": "171 (8.0) Number (%) of subjects"}, {"measurement": "Any AE with outcome = death", "setting": "[2]; [7]", "value": "106 (4.9) Number (%) of subjects"}, {"measurement": "Any SAE (including events with outcome = death)", "setting": "[2]; [7]", "value": "633 (29.5) Number (%) of subjects"}, {"measurement": "Any AE with outcome = death", "setting": "[2]; [8]", "value": "17 (2.4) Number (%) of subjects"}, {"measurement": "Any SAE (including events with outcome = death)", "setting": "[2]; [8]", "value": "150 (21.6) Number (%) of subjects"}, {"measurement": "Deaths, SAEs (serious adverse events) and DAEs (discontinuations due to adverse event)", "setting": "[2]; dapagliflozin group compared with placebo group, in words", "value": "fewer"}, {"measurement": "AEs leading to dose reduction", "setting": "[2]; human, in vivo", "value": "few but more common"}, {"measurement": "patients reported SAEs, overall", "setting": "[2]; human, in vivo", "value": "fewer"}, {"measurement": "Any AE with outcome = death", "setting": "[2]; [9]", "value": "89 (6.1) Number (%) of subjects"}, {"measurement": "Any SAE (including events with outcome = death)", "setting": "[2]; [9]", "value": "483 (33.2) Number (%) of subjects"}, {"measurement": "T2D developed in", "setting": "[3]; [10]", "value": 3.0, "unit": "%"}, {"measurement": "T2D developed in (patients/group)", "setting": "[3]; [10]", "value": "21/697"}, {"measurement": "event rate of newly diagnosed T2D", "setting": "[3]; dapagliflozin 10 mg once daily, median follow-up of 2.4 years", "value": "1.5 /100-patient years"}, {"measurement": "reduction in T2D incidence", "setting": "[3]; dapagliflozin vs placebo", "value": 38, "unit": "%"}, {"measurement": "new-onset diabetes", "setting": "[4]; [11]", "value": 4.9, "unit": "%"}, {"measurement": "new-onset diabetes (patients/group)", "setting": "[4]; [11]", "value": "64/1298"}, {"measurement": "HR, new-onset diabetes", "setting": "[4]; dapa vs placebo, 95% CI, 0.50-0.94, p=0.019, Cox", "value": 0.68}, {"measurement": "reduction of new-onset diabetes", "setting": "[4]; dapa vs placebo, DAPA-HF non-T2D patients", "value": 32, "unit": "%"}]}
